What all share (experiment): inhibition of tumour cell growth, NCI panel, 48 h
In assay [1] the test system is EKVX NSCLC.
The subject of assay [2] is KM12 colon.
For assay [3], the system named is MCF7 breast.
Assay [4] relates to NCI-H226 lung.
The subject of assay [5] is HOP-92 NSCLC.
Assay [6] has as its system COLO 205 colon.
Assay [7] concerns TK-10 renal.
For assay [8], the system named is OVCAR-4 ovarian.
Assay [9] concerns OVCAR-5 ovarian.
The subject of assay [10] is HL-60(TB) leukemia.

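Grown in 96-well plates, cells were treated for 48 hours with each compound at five concentrations. Insufficient inhibition: endpoint recorded as highest concentration tested. At the GI50, growth is halved. TGI: concentration producing complete growth inhibition.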

The results in this text go back to PubChem BioAssay (NCI).

Turning to `CC(C)c1ccc(C(=O)Nc2sc3c(c2C(N)=O)CCC(=O)C3)cc1`, the GI50 was 1.78 µM in [1]; 0.45 µM in [2]; 0.466 µM in [3]; 2.42 µM in assay [4]; 1.29 µM in [5]; 0.564 µM in assay [6]. Also, the GI50 in assay [7] is 1.29 µM; in [8], 0.329 µM; in assay [9], 1.16 µM; in assay [10], 0.615 µM. Moreover, the TGI stood at 5.34 µM in assay [1]; 1.85 µM in [2]; 5.16 µM in assay [3]; 7.23 µM in [4]; 3.67 µM in assay [5]; 1.9 µM in assay [6]. The TGI in assay [7] is 3.81 µM; in [8], 1.2 µM; in assay [9], 3.08 µM; in assay [10], 4.82 µM.

On to `Fc1cc(F)c(COc2cc(Cn3cnc4c(Cl)nc(Cl)nc43)ccc2C23CC4CC(CC(C4)C2)C3)cc1F`, for which the GI50 in assay [1] was 23.3 µM; in assay [2] it was 17.2 µM; in assay [3], 11 µM; in assay [4] it was 2.15 µM; in assay [5], 17.6 µM; in [6], 17.8 µM. The GI50 in assay [7] was 17.1 µM; in assay [8] it was 19.5 µM; in assay [9] it was 19.9 µM; in assay [10] it was 1.99 µM. Moreover, the TGI in [1] was 50.8 µM; in assay [2] it was 32.6 µM; in assay [3], 27.5 µM; in [4], 4.51 µM; in [5], 32.1 µM; in [6] it was 39.1 µM. For the same molecule, the TGI in assay [7] amounted to 31.1 µM; in assay [8] it was 44 µM; in assay [9], 37.4 µM; in assay [10] it was 4.58 µM.

In the case of `CCN(CC)c1sc(N(CC)CC)c2c1SSSSS2`, the GI50 is 1.84 µM in [1]; 1.68 µM in [2]; 1.08 µM in assay [3]; 1.75 µM in assay [4]; 2.87 µM in [5]; 0.937 µM in assay [6]. The GI50 in [7] is 0.765 µM; in [8], 0.697 µM; in assay [9], 1.52 µM; in assay [10], 3.08 µM. Also, the TGI in assay [1] came out at 5.54 µM; in assay [2], 3.55 µM; in assay [4] it was 3.46 µM; in [5], 5.92 µM; in assay [7], 1.88 µM; in assay [8] it was 2.46 µM. The TGI is 3.2 µM in [9] and more than 100 µM in [10].

For `CN(C)CCCn1c2c(c3ccccc3c1=O)C(=O)c1ccccc1-2`, the GI50 in [1] was 11.3 µM; in assay [2], 3.6 µM; in assay [3], 0.554 µM; in assay [4], 1.18 µM; in assay [5] it was 0.421 µM; in assay [6], 7.52 µM. The GI50 in [7] was 1.67 µM; in assay [8] it was 3.15 µM; in [9] it was 3.06 µM; in [10], 1.74 µM. The TGI in assay [1] amounted to 36.8 µM; in assay [2], 17.7 µM; in assay [3], 12.2 µM; in assay [4] it was 2.74 µM; in [5], 5.59 µM; in assay [6], 24.8 µM. Also, the TGI in assay [7] is 11.3 µM; in assay [8], 48.9 µM; in [9], 14 µM; in assay [10], 3.85 µM.

As to `CCN(CC)c1ccc(C(=N)c2ccc(N(CC)CC)cc2)cc1`, the GI50 is 0.868 µM in assay [1]; 0.366 µM in assay [2]; 0.349 µM in assay [3]; 0.669 µM in assay [4]; 0.607 µM in assay [5]; 0.361 µM in assay [6]. Also, the GI50 in [7] was 0.896 µM; in assay [8], 1.55 µM; in assay [9], 1.53 µM; in assay [10], 0.276 µM. Besides, the TGI in assay [1] stood at 11.8 µM; in [2], 1.52 µM; in assay [3], 1.78 µM; in [4] it was 2.57 µM; in [5] it was 2.72 µM; in [6], 1.32 µM. Moreover, the TGI in assay [7] turned out to be 4.29 µM; in [8] it was 15.9 µM; in assay [9], 6.07 µM; in assay [10] it was 1.13 µM.

Take `COc1cc2oc(-c3ccc(O)cc3)cc(=O)c2c(OC)c1OC`: the TGI in assay [1], in assay [2], in [3], in [4], in [5] and in assay [6] was more than 100 µM in each case. Moreover, the TGI in [7], in assay [8], in [9] and in assay [10] was more than 100 µM in each case.

As for `NCCCC[C@@H]1NC(=O)[C@H]2CCCN2C(=O)[C@H](Cc2ccccc2)NC(=O)[C@H](Cc2ccccc2)CNC1=O`, the GI50 was more than 100 µM in assay [1]; more than 100 µM in assay [2]; more than 100 µM in assay [3]; more than 100 µM in assay [4]; 44.1 µM in assay [5]; more than 100 µM in assay [6]. Besides, the GI50 in assay [7], in assay [8], in assay [9] and in [10] was more than 100 µM in each case. Besides, the TGI in assay [1], in assay [2], in [3], in [4], in assay [5] and in assay [6] was more than 100 µM in each case. Further, the TGI in assay [7], in [8], in assay [9] and in [10] was more than 100 µM each time.

On to `CN/N=C(/CCN1CCCC1)CC(c1ccccc1)c1c(O)c2ccccc2oc1=O` (stereo not drawn), for which the TGI is more than 100 µM in [1]; more than 100 µM in assay [2]; more than 100 µM in assay [3]; more than 100 µM in assay [4]; 41.8 µM in assay [5]; more than 91.4 µM in [6]. Further, the TGI in [7], in [8], in [9] and in assay [10] was more than 100 µM throughout.
